Experimental data as given in patent US20160058712A1, “3-HYDROXYPTEROSTILBENE AND THERAPEUTIC APPLICATIONS THEREOF” (priority 2014, published 2016).

Experiments:
[1] = tested on: PARP, DFF-45, pro-caspase 8 and pro-caspase 9 in COLO 205 cells; assay: Western blotting of PARP, DFF-45, pro-caspase 8 and pro-caspase 9 cleavage; assay type: cell-based, human; conditions: COLO 205 cell lysates
Description: Western blotting analysis was performed as follows. The total proteins of COLO 205 cells were extracted via addition of gold lysis buffer (50 mM TrisHCl, pH 7.4; 1 mM NaF; 150 mM NaCl; 1 mM EGTA; 1 mM phenylmethanesulfonyl fluoride; 1% NP40; and 10 μg/mL leupeptin) to the cell pellets on ice for 30 min, followed by centrifugation at 10,000×g for 30 min at 4° C. The total proteins were measured by BioRad Protein Assay (BioRad Laboratories, Munich, Germany). The samples (50 μg of protein) were mixed with 5× sample buffer containing 0.3 M TrisHCl (pH 6.8), 25% 2mercaptoethanol, 12% sodium dodecyl sulfate (SDS), 25 mM EDTA, 20% glycerol, and 0.1% bromophenol blue. The mixtures were boiled at 100° C. for 5 min and were subjected to 10% SDS polyacrylamide minigels at a constant current of 20 mA. Electrophoresis was then carried out on SDSpolyacrylaniide gels. Proteins on the gel were electrotransferred onto an immobile membrane (PVDF; Millipore Corp., Bedford, Mass.) with transfer buffer composed of 25 mM TrisHCl (pH8.9), 192 mM glycine, and 20% methanol. The membranes were blocked with blocking solution containing 20 mM TrisHCl, and then immunoblotted with different primary antibodies and β actin. The blots were rinsed three times with PBST buffer (0.2% Tween 20 in 1× PBS buffer) for 10 min each. Then blots were incubated with 1:5000 dilution of the horseradish peroxidase (HRP) conjugated secondary antibody (Zymed Laboratories, San Francisco, Calif.) and then washed again three times with PBST buffer. The transferred proteins were visualized with an enhanced chemi-luminescence detection kit (ECL Amersham Pharmacia Biotech, Buckinghamshire, UK). The densities of the bands were quantified with a computer densitometer (AlphaImager™ 2200 System Alpha densitometer. Innotech Corporation, San Leandro, Calif.). […] The pro-caspase 8 cleavage by 3-HPT was moderate (FIG. 12).

[2] = tested on: PI3K/Akt, MAPKs and mTOR signaling in COLO 205 cells; assay: Western blotting of mTOR/p70S6K, PI3K/Akt and MAPKs signaling; assay type: cell-based, human; conditions: COLO 205, 50 μM, 24 hours
Description: (§1) Western blotting analysis was performed as follows. The total proteins of COLO 205 cells were extracted via addition of gold lysis buffer (50 mM TrisHCl, pH 7.4; 1 mM NaF; 150 mM NaCl; 1 mM EGTA; 1 mM phenylmethanesulfonyl fluoride; 1% NP40; and 10 μg/mL leupeptin) to the cell pellets on ice for 30 min, followed by centrifugation at 10,000×g for 30 min at 4° C. The total proteins were measured by BioRad Protein Assay (BioRad Laboratories, Munich, Germany). The samples (50 μg of protein) were mixed with 5× sample buffer containing 0.3 M TrisHCl (pH 6.8), 25% 2mercaptoethanol, 12% sodium dodecyl sulfate (SDS), 25 mM EDTA, 20% glycerol, and 0.1% bromophenol blue. The mixtures were boiled at 100° C. for 5 min and were subjected to 10% SDS polyacrylamide minigels at a constant current of 20 mA. Electrophoresis was then carried out on SDSpolyacrylaniide gels. […] The transferred proteins were visualized with an enhanced chemi-luminescence detection kit (ECL Amersham Pharmacia Biotech, Buckinghamshire, UK). The densities of the bands were quantified with a computer densitometer (AlphaImager™ 2200 System Alpha densitometer. Innotech Corporation, San Leandro, Calif.). […]
(§2) COLO 205 cells were treated with 50 μM pterostilbene or 3-hydroxypterostilbene for 24 hours. Cell lysates were prepared after 24 h treatment and the protein expression of LC3 were analyzed by Western blotting.

[3] = tested on: PC-3 cells; assay: Detection of autophagy (GFP-LC3 autophagosomes, Beclin-1/LC3 Western blot); assay type: cell-based, human; conditions: PC-3, 10 μM
Description: Photographs were obtained with a fluorescence microscope (Axioscop, Carl Zeiss, Thomwood, N.Y.) equipped with a mercury 100 W lamp, 490 nm band pass blue excitation filters, a 500 nm dichroic mirror and a 515 nm long pass barrier filter. The autophagy induced by 3-HPT in PC-3 cells was also further confirmed by the Western Blotting analysis of Beclin-1, LC3-I, LC3-II, Actin protein expression in PC-3 cells after 10 μM 3-HPT treatment at different time intervals (FIG. 9). The following conclusions were drawn based on aforesaid experimental studies. • 1. […] 3-Hydroxypterostilbene induced the intrinsic apoptotic pathway and extrinsic apoptotic pathway in PC-3 cells. • 3. […] 3′-Hydroxypterostilbene has significant therapeutic potential for the treatment of human prostate cancer.

[4] = tested on: LC3 I/II in COLO 205 cells; assay: Western blotting of LC3 I/II expression; assay type: cell-based, human; conditions: COLO 205, 50 μM, 24 hours, compared to pterostilbene
Description: as §1, §2

[5] = tested on: PC-3 cells; assay: DNA fragmentation by agarose gel electrophoresis; assay type: cell-based, human; conditions: PC-3, 0-20 μM, 48 hr, 2.0% agarose gel
[6] = tested on: COLO 205 xenograft tumors; assay: COLO 205 xenograft model; assay type: in vivo
Description: Male Balb/c nude mice at 3-4 weeks old (weighing 16-18 g) were obtained from the BioLASCO Experimental Animal Center (BioLASCO, Taipei, Taiwan). All animals were maintained in pathogen free sterile isolators and in a controlled atmosphere (25±1° C. at 50% relative humidity) and with a 12 h light-12 h dark cycle according to institutional guidelines. Animals were fed with standard AIN76 diet and all food, water, caging, and bedding were sterilized prior to use. Animals had free access to food and water at all times. Food cups were replenished with fresh diet every day. All animal experimental protocol used in this study was approved by Institutional Animal Care and Use Committee of the National Kaohsiung Marine University (IACUC, NKMU, #099AAA902, Validity dates: Jan. 1, 2009 Jul. 31, 2012). After 1 week of acclimation, colon cancer COLO 205 cells (5×10^6) in 0.2 mL PBS were injected subcutaneously between the scapulae of each nude mouse. After transplantation, tumor size was measured using calipers, and the tumor volume was estimated according to the following formula: tumor volume […]=L×W2/2, where L is the length and W is the width. Once tumors reached a mean size of […], mice were randomly divided into three groups (6 animals/group). Mice were i.p. injection with pterostilbene or 3-hydroxypterostilbene (10 mg/kg/d, respectively) for 15 days, while control animals were received injection of corn oil. The diet intake and body weight of each animal was monitored every day. The tumor volume was assessed and recorded every 5 days using caliper measurements. After 15 days, the mice were sacrificed by […] and the liver, kidneys, spleen and solid tumors were excised immediately and weighed. Average tumor volume and tumor weight of each group were represent the mean±standard deviation (SD). Average tumor volumes were recorded during the treatment and average tumor weights were measured at the end of experiment. Six samples were analyzed in each group, and values represent the mean±SD. *P<0.05 and **P<0.01, compared with control group. #P<0.05, compared with pterostilbene treated group. The tumor tissues were cut into several portion for western blot analysis or stored at −80° C. […] Furthermore, in mice receiving these treatment regimens, no gross signs of toxicity were observed during visible inspections of general appearance and microscopic examinations of individual organs. • 2.

[7] = tested on: PC-3 cell lines; assay: Microscopic morphological changes of PC-3 cells; assay type: cell-based, human; conditions: PC-3, 2.5-20 μM, 100× phase contrast
Description: The morphological changes evident in PC-3 cell lines treated with graded concentrations of 3-HPT (2.5 μM, 5 μM, 10 μM and 20 μM of 3-HPT) as viewed microscopically (100× under inverted stage microscope equipped with phase contrast) indicated cell cytotoxicity starting at a concentration of 5 μM 3-HPT (FIG. 2).

Structure (SMILES): COc1cc(/C=C/c2ccc(O)c(O)c2)cc(OC)c1 [3-hydroxypterostilbene, 3,4-dihydroxy-3′,5′-dimethoxy-trans-stilbene]
- DFF45 protein degradation [1]: induced DFF45 protein degradation
- pro-caspase 8 cleavage [1]: moderate
- pro-caspase 9 cleavage [1]: much better than that exemplified by pterostilbene
- degradation of PARP ([1]; compared with pterostilbene): markedly caused the degradation of 116 kDa PARP into 85 kDa fragments
- PI3K/Akt and MAPKs signalings, phosphorylation of mTOR [2]: significantly down regulated
- autophagy (Beclin-1, LC3 expression, autophagosome formation) [3]: induced autophagic cell death by increasing the Beclin-1, LC3 protein expression and autophagosome formation
- protein LC3 I/II expression [4]: Enhanced protein LC3 I/II expression
- DNA fragmentation [5]: indicated apoptotic cells death
- protein levels of COX2, MMP9, VEGF, cyclin D1, and procaspase 3 in tumors ([6]; 10 mg/kg, Western blot, compared to the pterostilbene group): markedly decreased
- side effects or toxicity (body and organ weights, gross signs) ([6]; 10 mg/kg/d i.p., 15 days, nude mice): no noticeable side effects or toxicity
- tumor volume ([6]; 10 mg/kg/d i.p., after 15 days): significantly inhibited in comparison with the pterostilbene treated mice
- tumor weight ([6]; 10 mg/kg/d i.p., end of experiment): strongly inhibited
- concentration at which cell cytotoxicity starts (morphological changes) [7]: 5 μM
